Laboratory results: US20050208149A1, “Use of arsenic-containing pharmaceutical composition in combination with radiation therapy for cancer treatment” (TTY Biopharm Limited Company, priority 2004, published 2005)
Values joined by “and” are separate entries in the source; they are usually repeats but may differ in a detail not shown here. Identical values can stand only once.

Tests used:
[1] = tested on: human cervical tumor xenografts; conditions: As2O3 pre-treatment in combination with ionizing radiation; Chun 2002; cited from earlier work
[2] = tested on: human cervical cancer cells; conditions: As2O3 pre-treatment in combination with ionizing radiation; Chun 2002; cited from earlier work
[3] = tested on: breast cancer patients with superficial fungating or skin-infiltrating tumors; assay: Monitoring for adverse effects (CTC version 2.0) during combined topical As2O3 and radiation treatment; type: in vivo, human; conditions: for Acute radiation dermatitis, case number / Anorexia, case number / Chronic radiation dermatitis, case number / Fatigue, case number / Granulocytosis, case number / Hyperpigmentation, case number / Leukopenia, case number / Nausea, case number / Thrombocytopenia, case number / Vomit, case number: of 7 patients, topical As2O3 + radiation
Excerpt: (§1) Between December 2001 and March 2003, seven patients of breast cancer with superficial fungating or skin-infiltrating tumors who had undergone standard treatments received topical As2O3 and radiotherapy at Mackay Memorial Hospital (Table 3). Eligibility criteria for the study included diagnosis of breast cancer confirmed by pathological examination. In addition, patients had to have relapsed after standard treatments such as surgery, radiation therapy or chemotherapy. Six patients had received post-operative radiation to the chest wall and axillary area. Written informed consent was required, and the study protocol was viewed and approved by the institutional review board of the Mackay Memorial Hospital.
(§2) As2O3 gel prepared by Example 2 was administered in daily topical doses that ranged from 0.01 to 0.5 mg/cm2/day, preferred from 0.05-0.15 mg/cm2/day. The gel was administered 1 h prior to the daily radiation treatment and was subsequently removed 5 min prior to the radiation exposure. Electron beam radiotherapy was delivered using a linear accelerator (9-12 MeV, dose rate 2.4 Gy/min; Clinac 1800; Varian Associates, Palo Alto, Calif.). Radiation was administered 5 days a week (total dose: 50 Gy in 25 fractions or 30 Gy in 10 fractions).
With regard to drug absorption via skin, possible systemic adverse effects were evaluated. Serial blood counts and serum chemistry profiles were performed. Serum chemistry profiles, including alanine aminotransferase, aspartate aminotransferase, blood urine nitrogen and creatinine, were measured using a Synchron LX20 spectrophotometer (Beckman Coulter, San Diego, Calif.). An electrocardiogram was recorded before and after irradiation for each patient. Adverse effect and toxicity were evaluated according to the Common Toxicity Criteria (CTC) version 2.0 published by the DCTD, NCI, NIH and DHHS in 1999.

[4] = tested on: breast cancer patients with superficial fungating or skin-infiltrating tumors; assay: Assessment of response: topical As2O3 gel plus electron beam radiotherapy; type: in vivo, human; set-up: key to Tumor response: Complete: A complete response was defined as the disappearance of all known skin lesions within radiation fields confirmed by subsequent observation at least 4 weeks apart; Partial: a decrease in the sum of the maximal perpendicular diameters for involved skin area within radiation fields by more than 50%; Progressive: at least 25% increase in the sum of the maximal perpendicular diameters for involved skin area or the appearance of new lesions within radiation fields; Stable: All other tumor outcomes were classified as stable disease; conditions: for Reduction in VAS for skin pain: 100-mm scale
Excerpt: as §1, §2
Observation for tumor response and skin reaction was conducted daily, with photographs taken weekly. A complete response was defined as the disappearance of all known skin lesions within radiation fields confirmed by subsequent observation at least 4 weeks apart. A partial response was defined as a decrease in the sum of the maximal perpendicular diameters for involved skin area within radiation fields by more than 50% which was confirmed by subsequent observation at least 4 weeks apart. Progressive disease was defined as at least 25% increase in the sum of the maximal perpendicular diameters for involved skin area or the appearance of new lesions within radiation fields. All other tumor outcomes were classified as stable disease. For efficacy of pain control, chest wall pain was estimated using a visual analog scale (VAS) as a subjective assessment. The VAS scores before treatment were set as the baseline for every patient, and we compared the changes between subsequent data after treatment and the baseline data. When differences were greater than 50 mm in a 100-mm scale, we identified this patient as a responder. The daily need for changing dressings (CD) of wounds was also recorded by nurses in charge of each patient.

[5] = tested on: cutaneous metastatic breast cancer; conditions: topical As2O3 alone; Cheng 2003; cited from earlier work
[6] = Wang Z. Y. 2001; cited from earlier work
[7] = combination of topical As2O3 and radiation, pilot study, seven patients
[8] = patient 1, skin infiltration, topical As2O3 gel + radiation 50 Gy
[9] = patient 2, skin infiltration, topical As2O3 gel + radiation 50 Gy
[10] = patient 3, skin infiltration, topical As2O3 gel + radiation 50 Gy
[11] = patient 4, fungating tumor, topical As2O3 gel + radiation 50 Gy
[12] = patient 5, fungating tumor, topical As2O3 gel + radiation 50 Gy
[13] = patient 6, fungating tumor, topical As2O3 gel + radiation 30 Gy
[14] = patient 7, fungating tumor, topical As2O3 gel + radiation 50 Gy

Compound: arsenic trioxide [As2O3]
- Effect on regression of established xenografts [1]: synergistic effect
- Effect on decreased clonogenic survival [2]: synergistic effect
- Acute radiation dermatitis, case number ([3]; CTC grade 0): 1
- Anorexia, case number ([3]; CTC grade 0): 4
- Chronic radiation dermatitis, case number ([3]; CTC grade 0): 4
- Fatigue, case number ([3]; CTC grade 0): 3
- Granulocytosis, case number ([3]; CTC grade 0): 6
- Hyperpigmentation, case number ([3]; CTC grade 0): 7
- Leukopenia, case number ([3]; CTC grade 0): 7
- Nausea, case number ([3]; CTC grade 0): 4
- Thrombocytopenia, case number ([3]; CTC grade 0): 7
- Vomit, case number ([3]; CTC grade 0): 6
- Acute radiation dermatitis, case number ([3]; CTC grade 1): 1
- Anorexia, case number ([3]; CTC grade 1): 2
- Chronic radiation dermatitis, case number ([3]; CTC grade 1): 2
- Fatigue, case number ([3]; CTC grade 1): 2
- Granulocytosis, case number ([3]; CTC grade 1): 1
- Hyperpigmentation, case number ([3]; CTC grade 1): 0
- Leukopenia, case number ([3]; CTC grade 1): 0
- Nausea, case number ([3]; CTC grade 1): 2
- Thrombocytopenia, case number ([3]; CTC grade 1): 0
- Vomit, case number ([3]; CTC grade 1): 1
- Acute radiation dermatitis, case number ([3]; CTC grade 2): 3
- Anorexia, case number ([3]; CTC grade 2): 1
- Chronic radiation dermatitis, case number ([3]; CTC grade 2): 1
- Fatigue, case number ([3]; CTC grade 2): 2
- Granulocytosis, case number ([3]; CTC grade 2): 0
- Hyperpigmentation, case number ([3]; CTC grade 2): 0
- Leukopenia, case number ([3]; CTC grade 2): 0
- Nausea, case number ([3]; CTC grade 2): 1
- Thrombocytopenia, case number ([3]; CTC grade 2): 0
- Vomit, case number ([3]; CTC grade 2): 0
- Acute radiation dermatitis, case number ([3]; CTC grade 3): 2
- Anorexia, case number ([3]; CTC grade 3): 0
- Chronic radiation dermatitis, case number ([3]; CTC grade 3): 0
- Fatigue, case number ([3]; CTC grade 3): 0
- Granulocytosis, case number ([3]; CTC grade 3): 0
- Leukopenia, case number ([3]; CTC grade 3): 0
- Nausea, case number ([3]; CTC grade 3): 0
- Thrombocytopenia, case number ([3]; CTC grade 3): 0
- Vomit, case number ([3]; CTC grade 3): 0
- Acute radiation dermatitis, case number ([3]; CTC grade 4): 0
- Anorexia, case number ([3]; CTC grade 4): 0
- Chronic radiation dermatitis, case number ([3]; CTC grade 4): 0
- Fatigue, case number ([3]; CTC grade 4): 0
- Granulocytosis, case number ([3]; CTC grade 4): 0
- Leukopenia, case number ([3]; CTC grade 4): 0
- Thrombocytopenia, case number ([3]; CTC grade 4): 0
- Vomit, case number ([3]; CTC grade 4): 0
- Time to satisfactory healing of grade 3 acute radiation dermatitis ([3]; after completion of the radiation treatment): 2-3 weeks
- Hematological changes ([3]; combined treatment): no significant hematological changes were observed
- Number of patients with grade 3 acute radiation dermatitis (most severe observed) ([3]; combined treatment): two
- Other adverse reactions ([3]; combined treatment): light-headedness during irradiation and moderate fatigue after radiation
- Patients developing grade 3 chronic radiation dermatitis ([3]; combined treatment): none
- Performance status ([3]; combined treatment): no changes in performance status were evident
- Dermatological toxicity such as skin rash ([3]; daily application less than 1 h, treatment not more than 5 weeks): we did not note any toxicity of this type
- Grade 2-4 granulocytosis or leukopenia ([3]; during the combined therapy): No grade 2-4 granulocytosis or leukopenia was noted
- Skin pigmentation, renal or hepatic function ([3]; during the course of the combined treatment): no skin pigmentation or significant changes in renal or hepatic function
- Change in mean daily needed CD frequency ([4]; after treatment for 1 month, all superficial and fungating wounds): 4.4 to 0.9
- Number of patients resistant, classified as stable disease ([4]; chest wall fungating tumor, of seven patients, combined therapy): One
- Number of patients with partial remission ([4]; chest wall fungating tumors, of seven patients, combined therapy): three
- Number of patients with complete remission ([4]; chest wall skin-infiltrating lesions, of seven patients, combined therapy): three
- Clinical response rate, complete remission [4, 7]: 42.9%
- Clinical response rate, partial remission [4, 7]: 42.9%
- Number of patients with relief of chest wall pain assessed by VAS ([4]; of seven patients, combined therapy): seven
- Tumor response [4, 8]: Complete
- Reduction in VAS for skin pain [4, 8]: 75 mm
- Tumor response [4, 9]: Complete
- Reduction in VAS for skin pain [4, 9]: 65 mm
- Tumor response [4, 10]: Complete
- Reduction in VAS for skin pain [4, 10]: 80 mm
- Tumor response [4, 11]: Partial (a decrease in the sum of the maximal perpendicular diameters for involved skin area within radiation fields by more than 50%)
- Reduction in VAS for skin pain [4, 11]: 70 mm
- Tumor response [4, 12]: Partial (a decrease in the sum of the maximal perpendicular diameters for involved skin area within radiation fields by more than 50%)
- Reduction in VAS for skin pain [4, 12]: 65 mm
- Tumor response [4, 13]: Partial (a decrease in the sum of the maximal perpendicular diameters for involved skin area within radiation fields by more than 50%)
- Reduction in VAS for skin pain [4, 13]: 75 mm
- Tumor response [4, 14]: Stable
- Reduction in VAS for skin pain [4, 14]: 55 mm
- Cumulative radiation dosage for remission of chest wall skin lesions ([4]; the three patients with complete remission, respectively): 20 Gy and 22 Gy and 28 Gy
- Local tumor control and wound secretion [5]: improved local tumor control and decreased wound secretion
- Systemic absorption, pharmacokinetic study [5]: no significant systemic absorption
- Systemic or local adverse effects [5]: without significant systemic or local adverse effects

Compound: S1[As]2S[As]3S[As]2S[As]13 [As4S4, tetraarsenic tetraslfide]
- Complete remission rate [6]: 84.9%
